Measured values published in patent US20080004302A1, “Novel Compounds” (ASTRAZENECA AB, priority 2006, published 2008).
Where a name gives a salt, the structure may show the parent alone.

Columns and labels:
FGFR1 kinase = FGFR1 kinase (Homo sapiens, UniProt P11362); assay: Kinase assay (using Caliper technology); type: biochemical; conditions: FGFR1 kinase, Caliper; upper bound of bin; read-out: IC50
Procedure, shortened: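 Human FGFR1 kinase activity measured with a 13-mer fluorescently tagged FGFR1-specific peptide substrate; compounds serially diluted in 5% (v/v) DMSO. Reactions ran 1.5 h at room temperature, stopped with EDTA-containing HEPES pH 7.5 buffer. Phosphorylated and unphosphorylated peptide separated by microfluidic mobility shift.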

FGFR1 IIIc [1] = biological target: T1, FGFR1 IIIc (Homo sapiens, UniProt P11362); assay: Cell based inhibition of transiently expressed FGFR1 IIIc phosphorylation via use of ECHO technology (Cos-1 cells); conditions: Cos-1 cells, phospho-FGFR1, ECHO dosing; upper bound of bin; read-out: IC50
T1 construct: host or cells: Cos-1

FGFR1 IIIc [2] = biological target: T1, FGFR1 IIIc; assay: Cell based inhibition of transiently expressed FGFR1 IIIc phosphorylation (Cos-1 cells); conditions: Cos-1 cells, phospho-FGFR1; upper bound of bin; read-out: IC50
Experimental: This assay is designed to detect inhibitors of transiently expressed FGFR1 phosphorylation by antibody staining of fixed cells detected using ArrayScan technology.
To undertake the assay, Cos-1 cells were harvested at 90-95% confluence for cell transfection. For each 96-well plate, 24 ul Lipofectamine 2000 was added to 809 ul OptiMEM and incubated at room temperature for 5 minutes. […] Equal volumes of DNA and Lipofectamine 2000 were combined (DNA: Lipid=1:1.2 ratio) and incubated at room temperature for 20 minutes.
The harvested Cos-1 cells are counted using a coulter counter and diluted further with 1% FCS/DMEM to 2.5×10^5 cells/ml. For each 96-well, 8.33 ml cells were required. […] Media was removed from the wells using vacuum aspiration; cells were fixed by adding 50μl of 100% methanol to each well and incubated at room temperature for 20 minutes.
The plates were read on an Arrayscan (Cellomics).

human IGF1R = biological target: T2, human IGF1R (Homo sapiens, UniProt P08069); assay: Inhibition of insulin-like growth factor-1 receptor phosphorylation in R+ cells; type: cell-based; conditions: 30 nM IGF1, read-out: IGF cell class
T2 construct: expressed in transfected cells; host or cells: R+ cells (R- mouse fibroblasts transfected with human IGF1R)

Erk phosphorylation = assay: Growth factor (bFGF) stimulated Erk phosphorylation in NIH 3T3 cells; conditions: Mus musculus
[3] = NIH3T3, NIH 3T3 cells, 3 ng/ml bFGF, upper bound of bin

T1 sequence (P11362 22-822): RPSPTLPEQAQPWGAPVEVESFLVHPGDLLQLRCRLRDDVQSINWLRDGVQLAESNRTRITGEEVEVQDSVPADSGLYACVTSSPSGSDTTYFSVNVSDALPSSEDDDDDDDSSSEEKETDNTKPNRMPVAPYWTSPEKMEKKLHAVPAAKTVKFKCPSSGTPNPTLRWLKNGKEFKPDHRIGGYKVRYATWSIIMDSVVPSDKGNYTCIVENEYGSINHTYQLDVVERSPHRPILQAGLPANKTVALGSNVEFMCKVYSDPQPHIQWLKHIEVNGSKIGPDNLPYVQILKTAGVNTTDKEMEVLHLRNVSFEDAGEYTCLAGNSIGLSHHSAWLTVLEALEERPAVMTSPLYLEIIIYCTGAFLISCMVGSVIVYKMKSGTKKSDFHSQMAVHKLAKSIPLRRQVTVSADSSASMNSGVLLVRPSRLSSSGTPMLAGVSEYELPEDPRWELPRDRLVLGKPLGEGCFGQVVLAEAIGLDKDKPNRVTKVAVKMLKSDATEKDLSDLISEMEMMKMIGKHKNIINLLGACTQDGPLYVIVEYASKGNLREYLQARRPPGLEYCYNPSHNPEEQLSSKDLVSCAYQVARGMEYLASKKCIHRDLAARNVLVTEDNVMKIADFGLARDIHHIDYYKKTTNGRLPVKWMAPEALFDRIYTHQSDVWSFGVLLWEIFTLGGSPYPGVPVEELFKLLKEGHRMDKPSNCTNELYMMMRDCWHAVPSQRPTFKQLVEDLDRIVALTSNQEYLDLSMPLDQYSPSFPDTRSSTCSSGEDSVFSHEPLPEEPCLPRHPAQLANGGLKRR
FGFR1 kinase, sequence (P11362 22-822): as above
T2 sequence (P08069 31-1367): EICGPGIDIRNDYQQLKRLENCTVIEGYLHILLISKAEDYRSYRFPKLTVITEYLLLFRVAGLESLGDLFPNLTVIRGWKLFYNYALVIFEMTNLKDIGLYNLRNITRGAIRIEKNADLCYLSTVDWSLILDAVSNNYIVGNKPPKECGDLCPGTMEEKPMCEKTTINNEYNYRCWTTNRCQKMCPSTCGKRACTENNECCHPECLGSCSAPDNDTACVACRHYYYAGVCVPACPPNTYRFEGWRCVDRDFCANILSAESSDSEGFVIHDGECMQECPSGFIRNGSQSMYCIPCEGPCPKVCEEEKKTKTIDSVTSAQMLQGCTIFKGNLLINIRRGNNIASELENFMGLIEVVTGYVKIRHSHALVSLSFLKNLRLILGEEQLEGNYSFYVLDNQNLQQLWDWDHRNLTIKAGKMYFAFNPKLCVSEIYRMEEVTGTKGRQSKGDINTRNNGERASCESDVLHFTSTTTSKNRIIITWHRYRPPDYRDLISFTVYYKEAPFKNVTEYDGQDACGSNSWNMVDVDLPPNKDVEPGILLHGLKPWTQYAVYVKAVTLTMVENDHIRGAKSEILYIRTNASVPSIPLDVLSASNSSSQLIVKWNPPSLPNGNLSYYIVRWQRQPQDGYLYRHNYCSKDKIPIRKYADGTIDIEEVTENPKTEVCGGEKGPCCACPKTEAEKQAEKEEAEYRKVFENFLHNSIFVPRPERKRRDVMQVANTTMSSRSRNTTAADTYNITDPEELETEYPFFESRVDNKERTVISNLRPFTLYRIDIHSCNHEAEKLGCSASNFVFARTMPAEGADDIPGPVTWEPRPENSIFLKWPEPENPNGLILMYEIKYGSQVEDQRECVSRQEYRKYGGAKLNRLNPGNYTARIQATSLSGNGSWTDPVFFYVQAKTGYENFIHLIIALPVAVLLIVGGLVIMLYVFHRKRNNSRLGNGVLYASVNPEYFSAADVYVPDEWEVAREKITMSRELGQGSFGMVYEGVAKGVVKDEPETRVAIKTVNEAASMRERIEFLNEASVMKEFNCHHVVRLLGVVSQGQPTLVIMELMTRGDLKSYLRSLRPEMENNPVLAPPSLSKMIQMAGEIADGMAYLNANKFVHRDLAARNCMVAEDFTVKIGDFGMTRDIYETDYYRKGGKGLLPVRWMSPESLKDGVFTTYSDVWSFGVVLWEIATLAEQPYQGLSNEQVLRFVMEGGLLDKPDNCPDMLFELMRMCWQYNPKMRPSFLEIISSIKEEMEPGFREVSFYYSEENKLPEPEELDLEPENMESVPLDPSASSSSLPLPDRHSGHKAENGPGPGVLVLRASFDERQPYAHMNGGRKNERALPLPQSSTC

| SMILES | IC50 (FGFR1 kinase) [nM] | IC50 (FGFR1 IIIc [1]) [nM] | IC50 (FGFR1 IIIc [2]) [nM] | IC50 (human IGF1R) [nM] | IC50 (Erk phosphorylation; [3]) [nM] | IC50 (Erk phosphorylation; NIH3T3) [nM] |
| --- | --- | --- | --- | --- | --- | --- |
| c1cc(Nc2cc(C3CCCC3)[nH]n2)nc(NCc2cc(C3CC3)no2)n1 [Example 14, N′-(5-cyclopentyl-2H-pyrazol-3-yl)-N-[(3-cyclopropyl-1,2-oxazol-5-yl)methyl]pyrimidine-2,4-diamine] | < 200 | < 200 | < 200 | – | – | – |
| CC(C)Cc1cc(Nc2ccnc(NCc3cc(C4CC4)no3)n2)n[nH]1 [Example 16, N-[(3-cyclopropyl-1,2-oxazol-5-yl)methyl]-N′-[5-(2-methylpropyl)-2H-pyrazol-3-yl]pyrimidine-2,4-diamine] | < 200 | < 200 | < 1000 | – | – | – |
| COc1ccccc1CCc1cc(Nc2ccnc(NCc3cc(C)no3)n2)n[nH]1 [Example 31, N′-[5-[2-(2-methoxyphenyl)ethyl]-1H-pyrazol-3-yl]-N-[(3-methyl1,2-oxazol-5-yl)methyl]pyrimidine-2,4-diamine hydrochloride] | < 1000 | – | < 10000 | > 10000 | < 10000 | – |
| Cc1cc(CNc2nccc(Nc3cc(CCc4cccc(OCc5ccccc5)c4)n[nH]3)n2)on1 [Example 38, N-[(3-methyl1,2-oxazol-5-yl)methyl]-N′-[5-[2-(3-phenylmethoxyphenyl)ethyl]-2H-pyrazol-3-yl]pyrimidine-2,4-diamine] | < 10000 | – | < 10000 | 100 to 1000 | < 1000 | – |
| Cc1cc(CNc2nccc(Nc3cc(CCc4ccccc4OCc4ccccc4)[nH]n3)n2)on1 [Example 39, N-[(3-methyl1,2-oxazol-5-yl)methyl]-N′-[5-[2-(2-phenylmethoxyphenyl)ethyl]-1H-pyrazol-3-yl]pyrimidine-2,4-diamine hydrochloride] | < 10000 | – | < 10000 | > 10000 | < 1000 | – |
| COCCOc1cccc(CCc2cc(Nc3ccnc(NCc4cc(C)no4)n3)n[nH]2)c1 [Example 40, N′-[5-[2-[3-(2-methoxyethoxy)phenyl]ethyl]-2H-pyrazol-3-yl]-N-[(3-methyl1,2-oxazol-5-yl)methyl]pyrimidine-2,4-diamine] | < 1000 | – | < 10000 | 1000 to 10000 | < 1000 | – |
| COc1ccc(CCc2cc(Nc3ccnc(NCc4cc(C)no4)n3)n[nH]2)cc1OC [Example 46, N′-[5-[2-(3,4-dimethoxyphenyl)ethyl]-1H-pyrazol-3-yl]-N-[(3-methyl1,2-oxazol-5-yl)methyl]pyrimidine-2,4-diamine hydrochloride] | – | – | < 10000 | 1000 to 10000 | – | < 10000 |
| COc1ccc(CCc2cc(Nc3ccnc(NCc4cc(C)no4)n3)n[nH]2)c(C)c1 [Example 47, N′-[5-[2-(4-methoxy-2-methyl-phenyl)ethyl]-2H-pyrazol-3-yl]-N-[(3-methyl1,2-oxazol-5-yl)methyl]pyrimidine-2,4-diamine] | < 1000 | – | < 1000 | 1000 to 10000 | < 1000 | – |
| Cc1cc(CNc2nccc(Nc3cc(CCc4cc(F)cc(Cl)c4)[nH]n3)n2)on1 [Example 57, N′-[5-[2-(3-chloro-5-fluoro-phenyl)ethyl]-2H-pyrazol-3-yl]-N-[(3-methyl-1,2-oxazol-5-yl)methyl]pyrimidine-2,4-diamine] | < 1000 | < 1000 | < 200 | – | – | – |
| Cc1cc(CNc2nccc(Nc3cc(CCc4cccc(CN)c4)[nH]n3)n2)on1 [Example 58, N′-[5-[2-[3-(aminomethyl)phenyl]ethyl]-1H-pyrazol-3-yl]-N-[(3-methyl-1,2-oxazol-5-yl)methyl]pyrimidine-2,4-diamine] | < 1000 | < 30000 | < 30000 | – | – | – |
| CNC(=O)c1cc(CNc2nccc(Nc3cc(CCc4cccc(OC)c4)n[nH]3)n2)on1 [Example 64, 5-[[[4-[[5-[2-(3-methoxyphenyl)ethyl]-2H-pyrazol-3-yl]amino]pyrimidin-2-yl]amino]methyl]-N-methyl-1,2-oxazole-3-carboxamide] | < 1000 | < 10000 | < 10000 | – | – | – |
| CNC(=O)c1cc(CNc2nccc(Nc3cc(CCc4cccc(O)c4)n[nH]3)n2)on1 [Example 65, 5-[[[4-[[5-[2-(3-hydroxyphenyl)ethyl]-2H-pyrazol-3-yl]amino]pyrimidin-2-yl]amino]methyl]-N-methyl-1,2-oxazole-3-carboxamide] | < 200 | < 10000 | < 10000 | 1000 to 10000 | – | – |
| CC(C)Oc1cc(Nc2ccnc(NCc3cc(C(N)=O)no3)n2)[nH]n1 [Example 78, 5-[[[4-[(5-propan-2-yloxy-2H-pyrazol-3-yl)amino]pyrimidin-2-yl]amino]methyl]-1,2-oxazole-3-carboxamide] | < 200 | – | < 10000 | – | < 1000 | – |
| CC(C)Oc1cc(Nc2ccnc(NCc3cc(C4CCC4)no3)n2)n[nH]1 [Example 102, N-[(3-cyclobutyl-1,2-oxazol-5-yl)methyl]-N′-(5-propan-2-yloxy-1H-pyrazol-3-yl)pyrimidine-2,4-diamine] | < 200 | < 200 | < 200 | 100 to 1000 | – | – |
| c1ccc(COc2cc(Nc3ccnc(NCc4cc(C5CC5)no4)n3)n[nH]2)cc1 [Example 103, N-[(3-cyclopropyl-1,2-oxazol-5-yl)methyl]-N′-(5-phenylmethoxy-2H-pyrazol-3-yl)pyrimidine-2,4-diamine] | < 200 | < 200 | < 200 | 1000 to 10000 | – | – |
| c1coc(-c2cc(Nc3ccnc(NCc4cc(C5CC5)no4)n3)n[nH]2)c1 [Example 120, N-[(3-cyclopropyl-1,2-oxazol-5-yl)methyl]-N′-[5-(2-furyl)-2H-pyrazol-3-yl]pyrimidine-2,4-diamine] | < 200 | < 200 | < 1000 | 1000 to 10000 | – | – |

Now from value to molecule, other results behind:

| IC50 (FGFR1 kinase) [nM] | IC50 (FGFR1 IIIc [1]) [nM] | IC50 (FGFR1 IIIc [2]) [nM] | IC50 (human IGF1R) [nM] | SMILES | IC50 (Erk phosphorylation; [3]) [nM] | IC50 (Erk phosphorylation; NIH3T3) [nM] |
| --- | --- | --- | --- | --- | --- | --- |
| < 10000 | – | < 10000 | > 10000 | Cc1cc(CNc2nccc(Nc3cc(COc4ccccc4)[nH]n3)n2)on1 [Example 34, N-[(3-methyl-1,2-oxazol-5-yl)methyl]-N′-[5-(phenoxymethyl)-2H-pyrazol-3-yl]pyrimidine-2,4-diamine] | < 10000 | – |
| < 200 | – | < 10000 | > 10000 | Cc1cc(CNc2nccc(Nc3cc(CCc4cc(O)cc(O)c4)[nH]n3)n2)on1 [Example 43, 5-[2-[5-[[2-[(3-methyl1,2-oxazol-5-yl)methylamino]pyrimidin-4-yl]amino]-1H-pyrazol-3-yl]ethyl]benzene-1,3-diol] | < 1000 | – |
| < 1000 | – | < 10000 | > 10000 | Cc1cc(CNc2nccc(Nc3cc(CCc4cccc(C#N)c4)[nH]n3)n2)on1 [Example 48, 3-[2-[5-[[2-[(3-methyl-1,2-oxazol-5-yl)methylamino]pyrimidin-4-yl]amino]-2H-pyrazol-3-yl]ethyl]benzonitrile] | < 10000 | – |
| < 200 | < 200 | < 200 | 1000 to 10000 | Oc1cccc(CCc2cc(Nc3ccnc(NCc4cc(C5CC5)no4)n3)n[nH]2)c1 [Example 56, 3-[2-[5-[[2-[(3-cyclopropyl-1,2-oxazol-5-yl)methylamino]pyrimidin-4-yl]amino]-1H-pyrazol-3-yl]ethyl]phenol] | – | – |
| < 1000 | < 30000 | < 30000 | – | Cc1cc(CNc2nccc(Nc3cc(CCc4cccc(C(=O)N(C)C)c4)[nH]n3)n2)on1 [Example 59, N,N-dimethyl-3-[2-[5-[[2-[(3-methyl-1,2-oxazol-5-yl)methylamino]pyrimidin-4-yl]amino]-2H-pyrazol-3-yl]ethyl]benzamide] | – | – |
| < 1000 | < 1000 | < 1000 | > 10000 | COc1cc(CCc2cc(Nc3ccnc(NCc4cc(C)no4)n3)n[nH]2)c(F)cn1 [Example 62, N′-[5-[2-(5-fluoro-2-methoxy-pyridin-4-yl)ethyl]-1H-pyrazol-3-yl]-N-[(3-methyl-1,2-oxazol-5-yl)methyl]pyrimidine-2,4-diamine hydrochloride] | – | – |
| < 200 | < 10000 | < 10000 | – | CN(C)Cc1cc(CNc2nccc(Nc3cc(CCc4cccc(O)c4)n[nH]3)n2)on1 [Example 63, 3-[2-[5-[[2-[[3-(dimethylaminomethyl)-1,2-oxazol-5-yl]methylamino]pyrimidin-4-yl]amino]-1H-pyrazol-3-yl]ethyl]phenol] | – | – |
| < 200 | – | < 10000 | – | Cc1cc(CNc2nccc(Nc3cc(OCc4ccoc4)[nH]n3)n2)on1 [Example 108, N′-[5-(3-furylmethoxy)-1H-pyrazol-3-yl]-N-[(3-methyl1,2-oxazol-5-yl)methyl]pyrimidine-2,4-diamine] | < 1000 | – |
